Results published in PMC12454603 (Archives of Toxicology, 2025).
pIC50: −log10 of the molar value. Where “and” joins values, the source holds several entries; their conditions need not be identical. Equal values may be shown once. Entries after “also recorded” stand apart in the source; their conditions may differ. Read-outs that look alike come from different tables or passages of the source.

Assays:
rats [1] = test system: rats; design: method as in Archibong et al. 2002; settings: rat; derived from reported in vivo dose–response data; ref Archibong et al. 2002; cited from earlier work
[2] = design: method as in Sun et al. 2002; settings: 8-MBaP assumed to be the same as BaP; ref Sun et al. 2002; cited from earlier work
[3] = test system: ES-D3 cells (differentiation into contracting cardiomyocytes); experiment: ES-D3 cell differentiation assay of the mouse embryonic stem cell test (mEST); type: cell-based; settings: for Outcome in the differentiation assay of the mEST: parent PAH tested without bioactivation; for pIC50: Mus musculus, Cardiomyocyte, 240 h, read-out: IC50 for inhibition of differentiation of ES-D3 cells into beating cardiomyocytes
Experimental: The developmental toxicity of the test compounds was assessed by the inhibitory effect on the differentiation of cells of the ES-D3 cell line into contracting cardiomyocytes. The assay was performed essentially as previously described (Kamelia et al. [2020]). The cells were cultured on the lid of a 96-well plate in 45 hanging drops (volume 20 µL/drop) at a concentration of 37,500 cells/ml. The 96 wells were filled with 250 µL PBS to maintain the humidity. Sterile Eppendorf lids were placed at the corners of the 96-well plate to prevent the hanging drops from contacting the 96-well plate. The plates were sealed with micropore tape and incubated at 37 °C with 5% CO2 in a humidified atmosphere for 72 h. After 72 h, 5 ml exposure medium was prepared for each concentration of each test compound with 0.25% DMSO in a 60 × 15 mm petri dish. The formed embryonic bodies (EBs) in the hanging drops on the lid of the 96-well plate were washed off with exposure medium and collected in the petri dish. The Petri dish was subsequently incubated at 37 °C with 5% CO2 in a humidified atmosphere for 48 h. After 48 h, the EBs were transferred to a 24-well plate filled with 1 ml exposure medium per well. Each well contained 1 EB. The 24-well plates were incubated at 37 °C with 5% CO2 in a humidified atmosphere for 120 h. The number of EBs with contracting cardiomyocytes and the undifferentiated EBs were counted under a microscope. In the solvent (DMSO) control, the presence of more than 21 EBs with contracting cardiomyocytes out of 24 EBs indicates a valid assay. In each experiment, 0.5 µM (0.065 µg/ml) 5-FU was used as a positive control. The result of the differentiation assay is expressed as the fraction of differentiated EBs of the total number of EBs.
(§1) The concentration–response data for the test compounds in the mEST were presented in three curves including curves for 1-day cytotoxicity, 5-day cytotoxicity, and 10-day differentiation assays. The obtained curves were fitted using the inhibition equation log (inhibitor) vs response (three parameters) option using GraphPad Prism software 5.0 (California, USA).

rats [4] = test system: rats; design: method as in Wang et al. 2021; settings: rat, oral exposure, previously predicted dose–response curve; ref Wang et al. 2021; cited from earlier work
rats [5] = experiment: PBK modeling-facilitated reverse dosimetry (QIVIVE) of mEST data to predict developmental toxicity; settings: rat
Experimental: The relationship between the in vivo 3-OH-8-MBaP concentration in maternal blood (C in vivo) and the in vitro 3-OH-8-MBaP concentration in the mEST (Cin vitro) was described by the following Eq. (2): 2 Cinvivo∗fub,invivo=Cinvitro∗fub,invitro
The fraction unbound in blood (fub, in vivo) of 3-OH-8-MBaP was calculated as 0.004 (Table 2) based on the methodology mentioned in Sect. “PBK model for 8-MBaP in rats”. The fraction unbound in the mEST (fub, in vitro) was assumed to be half of the fub, in vivo based on the ratio between the protein content in rat blood plasma (7.5%) and the mEST assay medium (15%). The unbound concentration in vitro (Cub, in vitro) inducing the developmental toxicity response in mEST was converted using Eq. (2) to an unbound concentration in blood (Cub,in vivo) that was further converted by the PBK model to a predicted oral dose.

[6] = In vivo kinetic study, intravenous 50 mg/kg bw, blood concentrations; settings: rat, 50 mg/kg bw parent PAH
Experimental: Six male Sprague–Dawley rats at the age of 8–9 weeks weighing 286-305g/rat were obtained from Charles River Inc (Beijing, China). The rats were maintained in plastic cages in two groups of three in a temperature-controlled (ranging from 20 °C to 25 °C) and humidity-controlled (ranging from 40–70%) environment on a 12-h light–dark cycle. The animal bedding was corncob and used after autoclaving. The bedding and the cages were changed twice a week. The number of animals was restricted to 3 per dose group and control blood samples were collected before dosing. Feeding and living conditions followed the Chinese Laboratory Animal-Requirement of environment and housing facilities (GB14925-2010). The present rat study was approved by Institutional Animal Care and Use Committee (IACUC-BF202305006).
All animals were fasted 8 h before intravenous injection and resumed feed supply 4 h after dosing.
After administration, blood samples (0.1–0.2 ml blood volume) were taken from the medial canthus venous plexus of the animal and anticoagulated with sodium heparin. Prior to orbital venipuncture and blood collection, the animals were anesthetized by CO2 inhalation (70% CO2 + 30% O2). Blood was sampled at 1 min, 0.5, 1, 2, 4, 8, 12, 24, 32, 48, and 72 h post-dosing. After collection, blood samples were frozen and were stored at −20 °C until analysis. All animals were euthanized with 100% CO2 after the experiment.
Aliquots of 100 µL of blood samples were transferred into centrifuge tubes and 700 µL sodium acetate buffer (0.1M, pH 5.0) and 6 µL β-glucuronidase-arylsulfatase were added. The samples were incubated for 1 h at 37 °C and subsequently extracted twice with 800 µL ethyl acetate saturated with water. The samples were shaken for 30 min and centrifuged 5 min at 2000 g (4 °C). The upper organic phase was transferred to a centrifuge tube and evaporated under a gentle stream of nitrogen at 40 ℃ in a water bath. The residues were re-dissolved with 200 µL ascorbic acid:methanol (1:100). […]

ES-D3 cells = experiment: ES-D3 cell cytotoxicity (WST-1 viability) assay of the mEST; type: cell-based, mouse
Experimental: The viability of the ES-D3 cells following 1-day and 5-day exposure to the test compounds was measured with the WST-1 assay. To this end, 100 µL cell suspension was seeded in the inner 60 wells of 96-well plates at a concentration of 2 × 10^5 cells/ml for 1-day exposure and 10^4 cells/ml for 5-day exposure and incubated at 37 °C with 5% CO2 for 24 h. After 24 h, 100 µL exposure medium with 0.25% DMSO and the required concentration of the test compounds, solvent control, and positive control were added to the cells in triplicate. The plates were incubated at 37 °C with 5% CO2 for 1 day or 5 days until measurement. After the exposure period, 20 µL of the cell proliferation reagent WST-1 were added to each well that contained cells and the cells were incubated for 3 h at 37 °C with 5% CO2. The absorbance of each plate was measured at 440 nm and 620 nm with a SpectraMax iD3 (San Jose, USA).
as §1

[7] = test system: P450 enzymes in rat liver microsomes; design: method as in Wang et al. 2022; settings: cited from earlier work
[8] = test system: P450 enzymes in rat liver microsomes; experiment: P450-mediated oxidative metabolism of 8-MBaP/BaP in rat liver microsomes; type: in vitro ADME
Experimental: 3-OH-8-MBaP was subsequently modeled to be conjugated by glucuronidation and sulfation in the liver. The kinetic constants for these conjugation reactions were determined in incubation experiments described in Sect. […] The scaling factors from rat liver microsomes and rat liver S9 to the whole liver were 45 mg microsomal protein/g liver and 125 mg S9 protein/g liver, respectively (Houston and Galetin [2008]).

[9] = scaled to whole liver, liver weight 9.1 g
[10] = scaled with 45 mg microsomal protein/g liver

## c1ccc2c(c1)cc1ccc3cccc4ccc2c1c34 [BaP, benzo[a]pyrene]
Rats [1]
  ED50 for developmental toxicity, in vivo toxicity study: 10.8 mg/kg bw
[2]
  Permeability coefficient (Papp), apparent intestinal permeability in vivo: 0.02 dm/hr
[3]
  Outcome in the differentiation assay of the mEST: inactive; also recorded: negative
Rats [4]
  ED50 for developmental toxicity, model prediction: 15.1 mg/kg bw
Rats [5]; oral, versus Wang et al. 2021
  Predicted ED50 of BaP (present study) relative to previously predicted ED50 of BaP (lower): 0.9 fold
Rats [5]; versus Archibong et al. 2002
  Predicted ED50 of BaP (present study) relative to ED50 from the reported in vivo study (higher): 1.3 fold

## Oc1ccc2ccc3c4ccccc4cc4ccc1c2c43 [3-OHBaP, 3-hydroxy-benzo[a]pyrene, reference compound]
[6]
  Observed in vivo Cmax relative to the model prediction (lower): 2.6 fold
[3]
  pIC50: 5.82
ES-D3 cells; 1-day and 5-day cytotoxicity, ES-D3 cells
  Cytotoxicity accompanying the inhibition of differentiation: non-cytotoxic concentrations

## Cc1ccc2c(c1)cc1ccc3cccc4ccc2c1c34 [8-MBaP, 8-methyl-benzo[a]pyrene]
[7]; read-out: Km, 8-MBaP to 3-OH-8-MBaP, ref Wang et al. 2022, listed as 8MBaP
  Km: 12 µM
[7]; read-out: Km, 8-MBaP to 3-OH-8-MBaP, ref Wang et al. 2022
  Km: 11.6 µM
[7]; read-out: Km, 8-MBaP to other metabolites, sum of other metabolites, ref Wang et al. 2022, listed as 8MBaP
  Km: 8 µM
[7]; read-out: Km, 8-MBaP to other metabolites, sum of other metabolites, ref Wang et al. 2022
  Km: 8.07 µM
[7]; ref Wang et al. 2022
  Vmax, 8-MBaP to 3-OH-8-MBaP: 0.07 nmol/min/mg microsomal protein and 0.07^a nmol/min/mg microsomal protein
[7]; sum of other metabolites, ref Wang et al. 2022
  Vmax, 8-MBaP to other metabolites: 0.43 nmol/min/mg microsomal protein and 0.43^a nmol/min/mg microsomal protein
[3]
  pIC50: 6.08
  Outcome in the differentiation assay of the mEST: negative
[8]; [9]
  Scaled Vmax, 8-MBaP to 3-OH-8-MBaP: 2 µmol/h/liver
  Scaled Vmax, 8-MBaP to other metabolites: 11 µmol/h/liver
[8]; [10]
  Scaled Vmax, 8-MBaP to 3-OH-8-MBaP: 0.19 µmol/h/g liver
  Scaled Vmax, 8-MBaP to other metabolites: 1.18 µmol/h/g liver
ES-D3 cells; Mus musculus, 120 h, 5-day exposure, WST-1, read-out: IC50 for reduction of cell viability on Day 5
  pIC50: 5.76
